These compounds were tested against Escherichia coli DNA gyrase A/B tetramer (Escherichia coli, UniProt P0AES4+P0AES6) (assay: DNA gyrase supercoiling activity fluorescence polarisation assay). Conditions: not given.
Format: biochemical
Method: In a black, 384-well polystyrene assay plate, 30 microliters/well of 5 nM Escherichia coli DNA gyrase A/B tetramer and 130 micrograms/ml of topologically relaxed plasmid containing the triplex-forming sequence […] in an assay buffer consisting of 35 mM Tris-HCl (pH 7.5), 24 mM KCl, 4 mM MgCl2, 2 mM dithiothreitol, 1.8 mM spermidine, 5% (v/v) glycerol, 200 nM bovine serum albumin, 0.8% dimethylsulfoxide, and 0.3 mM ATP may be incubated at ambient temperature for (typically 30 minutes) in the absence or presence of 5-10 different concentrations of test compound. The supercoiling reactions may be quenched by the addition of 10 microliters/well of 40 nM oligodeoxynucleotide probe in 3× triplex-forming buffer consisting of 150 mM NaCl, and 150 mM sodium acetate at pH 3.5. The oligodeoxynucleotide probe may be 5′-BODIPY-FL-labeled TTCTTCTTC. After 60 minutes, the fluorescence anisotropy of the BODIPY-FL may be measured in a Tecan Ultra plate reader, using 485 nm excitation and 535 nm emission filters equipped with polarizers. The IC50 may be determined by nonliner regression using two control reactions. The first contains no test compound but 0.8% DMSO (100% activity) while the second control reaction contains 5 uM Ciprofloxacin and 0.8% DMSO (0% activity).
When tested in an in-vitro assay based on the DNA gyrase supercoiling activity fluorescence polarisation assay described above, the E. coli DNA gyrase supercoiling IC50 assay inhibitory activity of the following Examples was measured at the indicated IC50.

Sequence of Escherichia coli DNA gyrase A/B tetramer (P0AES4 whole entry, one chain of several): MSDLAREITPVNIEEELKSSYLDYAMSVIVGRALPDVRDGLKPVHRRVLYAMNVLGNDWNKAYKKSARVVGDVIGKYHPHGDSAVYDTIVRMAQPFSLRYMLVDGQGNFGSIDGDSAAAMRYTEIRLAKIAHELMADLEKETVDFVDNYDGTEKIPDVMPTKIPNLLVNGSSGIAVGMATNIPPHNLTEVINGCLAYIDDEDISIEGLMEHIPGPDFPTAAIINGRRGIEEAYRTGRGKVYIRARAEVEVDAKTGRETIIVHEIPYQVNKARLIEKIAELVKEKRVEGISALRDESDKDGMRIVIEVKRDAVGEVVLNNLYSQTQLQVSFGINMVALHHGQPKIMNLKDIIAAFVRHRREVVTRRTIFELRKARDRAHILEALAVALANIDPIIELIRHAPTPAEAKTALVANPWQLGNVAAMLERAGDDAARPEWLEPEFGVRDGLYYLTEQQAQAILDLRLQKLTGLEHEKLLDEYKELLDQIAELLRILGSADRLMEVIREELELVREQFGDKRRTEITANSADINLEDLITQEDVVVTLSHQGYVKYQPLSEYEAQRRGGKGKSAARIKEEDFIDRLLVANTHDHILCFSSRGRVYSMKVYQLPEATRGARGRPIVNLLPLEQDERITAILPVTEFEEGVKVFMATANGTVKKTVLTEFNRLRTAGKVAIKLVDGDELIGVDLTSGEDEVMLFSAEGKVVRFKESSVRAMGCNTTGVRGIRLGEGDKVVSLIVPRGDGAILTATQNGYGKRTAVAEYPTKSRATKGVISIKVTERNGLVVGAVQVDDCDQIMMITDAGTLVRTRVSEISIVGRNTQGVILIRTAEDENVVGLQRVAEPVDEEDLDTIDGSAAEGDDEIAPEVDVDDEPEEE

Row | SMILES | IC50 [nM]
1 | C[C@@H]1CN2c3c(cc(C#Cc4cccnc4)c(F)c3F)CC3(C(=O)NC(=O)NC3=O)[C@H]2[C@H](C)O1 (relative stereo) [Example 18, (2R,4S,4aS)-rel-9,10-Difluoro-2,4-dimethyl-8-(pyridin-3-ylethynyl)-1,2,4,4a-tetrahydro-2′H,6H-spiro[1,4-oxazino[4,3-a]quinoline-5,5′-pyrimidine]-2′,4′,6′(1′H,3′H)-trione] | 500
2 | C/C(=N\NC(=O)C1CC1)c1cc2c(c(F)c1F)N1C[C@@H](C)O[C@@H](C)[C@@H]1C1(C2)C(=O)NC(=O)NC1=O (relative stereo) [Example 56, N′-{(1E)-1-[(2R,4S,4aS)-rel-9,10-Difluoro-2,4-dimethyl-2′,4′,6′-trioxo-1,1′,2,3′,4,4′,4a,6′-octahydro-2′H,6H-spiro[1,4-oxazino[4,3-a]quinoline-5,5′-pyrimidin]-8-yl]ethylidene}cyclopropanecarbohydrazide] | 1870
3 | C[C@@H]1CN2c3c(cc(C(=O)NC4CCN(C(=O)OC(C)(C)C)CC4)c(F)c3F)CC3(C(=O)NC(=O)NC3=O)[C@H]2[C@H](C)O1 (relative stereo) [Example 67, tert-Butyl 4-({[(2R,4S,4aS)-rel-9,10-difluoro-2,4-dimethyl-2′,4′,6′-trioxo-1,1′,2,3′,4,4′,4a,6′-octahydro-2′H,6H-spiro[1,4-oxazino[4,3-a]quinoline-5,5′-pyrimidin]-8-yl]carbonyl}amino)piperidine-1-carboxylate] | 12000
4 | COCC(=O)N/N=C(\C)c1cc2c(c(F)c1F)N1C[C@@H](C)O[C@@H](C)[C@@H]1C1(C2)C(=O)NC(=O)NC1=O (relative stereo) [Example 55, N′-{(1E)-1-[(2R,4S,4aS)-rel-9,10-Difluoro-2,4-dimethyl-2′,4′,6′-trioxo-1,1′,2,3′,4,4′,4a,6′-octahydro-2′H,6H-spiro[1,4-oxazino[4,3-a]quinoline-5,5′-pyrimidin]-8-yl]ethylidene}-2-methoxyacetohydrazide] | 7590
5 | C[C@H]1CN2c3c(cc(C#Cc4ncccn4)c(F)c3F)CC3(C(=O)NC(=O)NC3=O)[C@@H]2[C@@H](C)O1 (relative stereo) [Example 19, (2S,4R,4aR)-rel-9,10-Difluoro-2,4-dimethyl-8-(pyrimidin-2-ylethynyl)-1,2,4,4a-tetrahydro-2′H,6H-spiro[1,4-oxazino[4,3-a]quinoline-5,5′-pyrimidine]-2′,4′,6′(1′H,3′H)-trione] | 520
6 | C[C@@H]1CN2c3c(cc(C#Cc4nccn4C)c(F)c3F)CC3(C(=O)NC(=O)NC3=O)[C@H]2[C@H](C)O1 (racemic) [Example 12, (2R,4S,4aS)-rel-9,10-Difluoro-2,4-dimethyl-8-[(1-methyl-1H-imidazol-2-yl)ethynyl]-1,2,4,4a-tetrahydro-2′H,6H-spiro[1,4-oxazino≡[4,3-a]quinoline-5,5′-pyrimidine]-2′,4′,6′(1′H,3H)-trione] | 690
7 | C[C@@H]1CN2c3c(F)cc(C#Cc4nccs4)cc3CC3(C(=O)NC(=O)NC3=O)[C@H]2[C@H](C)O1 (relative stereo) [Example 38, (2R,4S,4aS)-rel-10-Fluoro-2,4-dimethyl-8-(1,3-thiazol-2-ylethynyl)-1,2,4,4a-tetrahydro-2′H,6H-spiro[1,4-oxazino[4,3-a]quinoline-5,5′-pyrimidine]-2′,4′,6′(1′H,3′H)-trione] | 760
8 | C/C(=N\NC(=O)OC(C)(C)C)c1cc2c(c(F)c1F)N1C[C@@H](C)O[C@@H](C)[C@@H]1C1(C2)C(=O)NC(=O)NC1=O (relative stereo) [Example 50, tert-Butyl (2E)-2-{1-[(2R,4S,4aS)-rel-9,10-difluoro-2,4-dimethyl-2′,4′,6′-trioxo-1,1′,2,3′,4,4′,4a,6′-octahydro-2′H,6H-spiro[1,4-oxazino[4,3-a]quinoline-5,5′-pyrimidin]-8-yl]ethylidene}hydrazinecarboxylate] | 2360
9 | C[C@H]1CN2c3c(cc(C#Cc4cc5ccccc5s4)c(F)c3F)CC3(C(=O)NC(=O)NC3=O)[C@@H]2[C@@H](C)O1 (racemic) [Example 11, (2S,4R,4aR)-rel-8-(1-Benzothiophen-2-ylethynyl)-9,10-difluoro-2,4-dimethyl-1,2,4,4a-tetrahydro-2′H,6H-spiro[1,4-oxazino[4,3-a]quinoline-5,5′-pyrimidine]-2′,4′,6′(1′H,3′H)-trione] | 5490
10 | C/C(=N\Nc1ccccn1)c1cc2c(c(F)c1F)N1C[C@@H](C)O[C@@H](C)[C@@H]1C1(C2)C(=O)NC(=O)NC1=O (relative stereo) [Example 57, (2R,4S,4aS)-rel-9,10-Difluoro-2,4-dimethyl-8-{(1E)-1-[2-(pyridin-2-yl)hydrazinylidene]ethyl}-1,2,4,4a-tetrahydro-2′H,6H-spiro[1,4-oxazino[4,3-a]quinoline-5,5′-pyrimidine]-2′,4′,6′(1′H,3′H)-trione] | 850
11 | C[C@@H]1CN2c3ccc(C#Cc4nccn4C)cc3CC3(C(=O)NC(=O)NC3=O)[C@H]2[C@H](C)O1 (relative stereo) [Example 4, (2R,4S,4aS)-rel-2,4-Dimethyl-8-[(1-methyl-1H-imidazol-2-yl)ethynyl]-1,2,4,4a-tetrahydro-2′H,6H-spiro[1,4-oxazino[4,3-a]quinoline-5,5′-pyrimidine]-2′,4′,6′(1′H,3′H)-trione] | 630
12 | C[C@@H]1CN2c3c(cc(C#Cc4cnccn4)c(F)c3F)CC3(C(=O)NC(=O)NC3=O)[C@H]2[C@H](C)O1 [Example 79, (2R,4S,4aS)-9,10-Difluoro-2,4-dimethyl-8-(pyrazin-2-ylethynyl)-2,4,4a,6-tetrahydro-1H,1′H-spiro[[1,4]oxazino[4,3-a]quinoline-5,5′-pyrimidine]-2′,4′,6′(3′H)-trione] | 400
13 | C[C@@H]1CN2c3cc(F)c(C#Cc4cncs4)cc3CC3(C(=O)NC(=O)NC3=O)[C@H]2[C@H](C)O1 (relative stereo) [Example 27, (2R,4S,4 aS)-rel-9-Fluoro-2,4-dimethyl-8-(1,3-thiazol-5-ylethynyl)-1,2,4,4a-tetrahydro-2′H,6H-spiro[1,4-oxazino[4,3-a]quinoline-5,5′-pyrimidine]-2′,4′,6′(1′H,3′H)-trione] | 830
14 | C[C@@H]1CN2c3cc(F)c(C#Cc4nc5ccccc5o4)cc3CC3(C(=O)NC(=O)NC3=O)[C@H]2[C@H](C)O1 (relative stereo) [Example 35, (2R,4S,4aS)-rel-8-(1,3-Benzoxazol-2-ylethynyl)-9-fluoro-2,4-dimethyl-1,2,4,4a-tetrahydro-2′H,6H-spiro[1,4-oxazino[4,3-a]quinoline-5,5′-pyrimidine]-2′,4′,6′(1′H,3′H)-trione] | 1480
15 | C[C@@H]1CN2c3cc(F)c(C#Cc4cccs4)cc3CC3(C(=O)NC(=O)NC3=O)[C@H]2[C@H](C)O1 (relative stereo) [Example 28, (2R,4S,4aS)-rel-9-Fluoro-2,4-dimethyl-8-(thiophen-2-ylethynyl)-1,2,4,4a-tetrahydro-2′H,6H-spiro[1,4-oxazino[4,3-a]quinoline-5,5′-pyrimidine]-2′,4′,6′(1′H,3′H)-trione] | 1110
16 | C[C@H]1CN2c3c(cc(C#Cc4cn(C)cn4)c(F)c3F)CC3(C(=O)NC(=O)NC3=O)[C@@H]2[C@@H](C)O1 (racemic) [Example 13, (2S,4R,4aR)-rel-9,10-Difluoro-2,4-dimethyl-8-[(1-methyl-1H-imidazol-4-yl)ethynyl]-1,2,4,4a-tetrahydro-2′H,6H-spiro[1,4-oxazino[4,3-a]quinoline-5,5′-pyrimidine]-2′,4′,6′-(1′H,3′H)-trione] | 2170
17 | C/C(=N\Nc1cnccn1)c1cc2c(c(F)c1F)N1C[C@@H](C)O[C@@H](C)[C@@H]1C1(C2)C(=O)NC(=O)NC1=O (relative stereo) [Example 60, (2R,4S,4aS)-rel-9,10-Difluoro-2,4-dimethyl-8-{(1E)-1-[2-(pyrazin-2-yl)hydrazinylidene]ethyl}-1,2,4,4a-tetrahydro-2′H,6H-spiro[1,4-oxazino[4,3-a]quinoline-5,5′-pyrimidine]-2′,4′,6′(1′H,3′H)-trione] | 260
18 | C[C@H]1CN2c3c(cc(C#Cc4ncc[nH]4)c(F)c3F)CC3(C(=O)NC(=O)NC3=O)[C@@H]2[C@@H](C)O1 (relative stereo) [Example 16, (2S,4R,4aR)-rel-9,10-Difluoro-8-(1H-imidazol-2-ylethynyl)-2,4-dimethyl-1,2,4,4a-tetrahydro-2′H,6H-spiro[1,4-oxazino[4,3-a]quinoline-5,5′-pyrimidine]-2′,4′,6′(1′H,3′H)-trione] | 690

Same assay, conditions: 5 nM enzyme, 0.3 mM ATP, relaxed plasmid, fluorescence anisotropy readout; read-out: E. coli DNA gyrase supercoiling IC50

Row | SMILES | IC50 [nM]
19 | C[C@@H]1CN2c3c(cc(C(=O)NC4CCN(C(=O)OC(C)(C)C)C4)c(F)c3F)CC3(C(=O)NC(=O)NC3=O)[C@H]2[C@H](C)O1 (relative stereo) [Example 63, tert-Butyl 3-({[2R,4S,4aS)-rel-9,10-difluoro-2,4-dimethyl-2′,4′,6′-trioxo-1,1′,2,3′,4,4′,4a,6′-octahydro-2′H,6H-spiro[1,4-oxazino[4,3-a]quinoline-5,5′-pyrimidin]-8-yl]carbonyl}amino)pyrrolidine-1-carboxylate] | 6400
